Results: patent US20090082713A1, “METHOD OF ENHANCING IONTOPHORETIC DELIVERY OF A PEPTIDE” (priority 2007, published 2009)
Where two headings read alike, the source gives them in different places.

How the values were obtained:
[1] = In vivo iontophoretic delivery of salmon calcitonin across skin microporated with maltose microneedles, serum SCT by ELISA; set-up: species or system hairless rat; settings: for increase in concentration compared to delivery with microneedles alone: p<0.05; for increase in concentration compared to delivery with microneedles alone / Cmax / total amount of SCT delivered: hairless rat; for Cmax: hairless, rat, serum, topical or ocular, 350 µg, read-out: maximum concentration of SCT in the serum; for total amount of SCT delivered: calculated by WinNonlin
Protocol: • Purpose: To determine the effect of iontophoresis and its combination with microneedles on the in vivo delivery of salmon calcitonin (SCT) as a model peptide. • Methods: Microneedles, iontophoresis and the combination were investigated for their effect on the transdermal delivery of SCT in vivo using the hairless rat. SCT (350 μl of a 1 mg/ml solution in 50 mM citrate buffer, pH 4.0) was placed in a cartridge designed for iontophoresis. Maltose microneedles (500 micron, Texmac Inc.), stacked in three layers, were used to porate the skin prior to the application of the drug with or without iontophoresis. […] Transport of drug across the skin was assessed by collecting blood samples at regular intervals via the tail vein which were analyzed for serum SCT using ELISA. • Results: The maximum concentrations of SCT in the serum were 41.45 pg/ml, 605.21 pg/ml, and 2374.06 pg/ml under microneedles alone, 1 hr iontophoresis alone, and the combination, respectively. When compared to the delivery with microneedles alone, the increase in concentration with iontophoresis alone was 15-fold (p<0.05) and with the combination of microneedles the increase was 57-fold (p<0.05). The total amount of SCT delivered by iontophoresis and its combination with microneedles in the hairless rat was 648.67 ng/kg and 3075.96 ng/kg, respectively, as calculated by WinNonlin. • Conclusion: Iontophoresis or a disruption of the skin barrier by microneedles enabled the transdermal delivery of SCT.

[2] = In vivo delivery of salmon calcitonin using iontophoresis in combination with microporation using titanium needle arrays; set-up: species or system hairless rat; settings: titanium needle array microporation in combination with iontophoresis; 0.5 minutes after administration; FIG. 1C

increase in concentration compared to delivery with microneedles alone ([1]; combination of iontophoresis and microneedles vs microneedles alone): 57 fold | Cmax ([1]; pH 4, transdermal, 1 hr iontophoresis alone (0.2 mA/cm^2), 350 μl of 1 mg/ml SCT, pH 4.0): 0.605 ng/mL | Cmax ([1]; pH 4, transdermal, maltose microneedles alone, 350 μl of 1 mg/ml SCT in 50 mM citrate buffer pH 4.0): 0.0415 ng/mL | Cmax ([1]; transdermal, combination of maltose microneedles and 1 hr iontophoresis (0.2 mA/cm^2)): 2.37 ng/mL | increase in concentration compared to delivery with microneedles alone ([1]; iontophoresis alone vs microneedles alone): 15 fold | total amount of SCT delivered ([1]; iontophoresis alone): 648.67 ng/kg | total amount of SCT delivered ([1]; iontophoresis in combination with microneedles): 3075.96 ng/kg | increase in amount of protein that permeated the skin compared to iontophoresis alone ([1]; microneedle treatment combined with iontophoresis vs iontophoresis alone, hairless rat model): about four | plasma concentration of SCT relative to microporation or iontophoresis alone [2]: about 10 fold
SMILES: CC(C)C[C@H](NC(=O)[C@H](CCCCN)NC(=O)CNC(=O)[C@H](CC(C)C)NC(=O)[C@@H](NC(=O)[C@@H]1CSSC[C@H](N)C(=O)N[C@@H](CO)C(=O)N[C@@H](CC(N)=O)C(=O)N[C@@H](CC(C)C)C(=O)N[C@@H](CO)C(=O)N[C@@H]([C@@H](C)O)C(=O)N1)C(C)C)C(=O)N[C@@H](CO)C(=O)N[C@@H](CCC(N)=O)C(=O)N[C@@H](CCC(=O)O)C(=O)N[C@@H](CC(C)C)C(=O)N[C@@H](Cc1c[nH]cn1)C(=O)N[C@@H](CCCCN)C(=O)N[C@@H](CC(C)C)C(=O)N[C@@H](CCC(N)=O)C(=O)N[C@H](C(=O)N[C@@H](Cc1ccc(O)cc1)C(=O)N1CCC[C@H]1C(=O)N[C@@H](CCCNC(=N)N)C(=O)N[C@H](C(=O)N[C@@H](CC(N)=O)C(=O)N[C@H](C(=O)NCC(=O)N[C@@H](CO)C(=O)NCC(=O)N[C@H](C(=O)N1CCC[C@H]1C(N)=O)[C@@H](C)O)[C@@H](C)O)[C@@H](C)O)[C@@H](C)O [SCT, salmon calcitonin]
